Drawing on PubChem BioAssay AID1053202 (The Scripps Research Institute Molecular Screening Center, 2014), this text covers Ki for 37 compounds.

pKi: −log10 of the molar value. Calls of active or inactive are those of the source.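 The calls were made as follows: active = Ki at or below 10 µM; inactive = Ki above 10 µM.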

The target of the first experiment is Fibrinogen beta chain (Homo sapiens) (UniProt P02675). As to the kind of experiment: displacement of Tn6 from fibrin D-dimer/E complex – biochemical, fluorescence polarization, Ki, set 1, late-stage follow-up (AID 1053202). The conditions noted are these: Purified DD(E), TRITC-Tn6 peptide displacement, protein 1 µM, probe 0.05 µM.
Chain of Fibrinogen beta chain (Homo sapiens) (P02675 whole entry, looked up): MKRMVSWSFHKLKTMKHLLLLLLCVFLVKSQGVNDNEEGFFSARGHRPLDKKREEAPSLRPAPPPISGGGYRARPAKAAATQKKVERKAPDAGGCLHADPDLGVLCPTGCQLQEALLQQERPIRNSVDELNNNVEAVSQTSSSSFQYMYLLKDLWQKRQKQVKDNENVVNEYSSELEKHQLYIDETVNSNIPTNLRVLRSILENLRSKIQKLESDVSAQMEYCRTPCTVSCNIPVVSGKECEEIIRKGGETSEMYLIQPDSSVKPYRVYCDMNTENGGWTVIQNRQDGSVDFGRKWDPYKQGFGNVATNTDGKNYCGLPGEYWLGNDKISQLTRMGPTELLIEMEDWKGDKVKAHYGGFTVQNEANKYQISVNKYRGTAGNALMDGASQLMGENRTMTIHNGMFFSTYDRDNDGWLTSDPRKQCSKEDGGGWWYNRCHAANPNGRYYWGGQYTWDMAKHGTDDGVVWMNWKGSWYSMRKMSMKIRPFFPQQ
Turning to `CCn1c(CSc2nnc(-c3ccncc3)n2C)nc2cc(C(=O)O)ccc21`, the pKi was 5.29.

On to `CCn1c(CSc2ncn[nH]2)nc2cc(C(=O)O)ccc21`, for which the Ki result was “inactive”.

On to `CCn1c(CSc2nc3ccccc3[nH]2)nc2cc(C(=O)O)ccc21`, for which the Ki entry was “inactive”.

With `CCn1c(CSc2nccn2C)nc2cc(C(=O)O)ccc21`, the Ki result is “inactive”.

For `OCCn1c(CSc2nnc(-c3ccc4c(c3)OCO4)o2)nc2ccc(Cl)cc21`, the Ki result is “inactive”.

For the compound `CCn1c(CSc2n[nH]c(N)n2)nc2cc(C(=O)O)ccc21`, the negative-log Ki (pKi) is 5.29.

Take `CCn1c(CSc2nnc(-c3ccncc3)n2CCOC)nc2cc(C(=O)O)ccc21`: the negative logarithm of the Ki (pKi) is 5.43.

As for `CCn1c(CSc2nnc3ccccn23)nc2cc(C(=O)O)ccc21`, the pKi is 5.64.

Staying with this experiment, now noted: Purified DD(E), TRITC-Tn6 peptide displacement, protein 2 µM, probe 0.1 µM.
On to `CCCCn1c(CSc2nnc(-c3ccco3)n2C)nc2cc(S(N)(=O)=O)ccc21`, for which the Ki result was “inactive”.

With `CCCn1c(SCc2nc3cc(S(=O)(=O)N4CCOCC4)ccc3n2CCC)n[nH]c1=O`, the pKi is 5.29.

In the case of `CCn1c(CSc2nc3ccccc3c(=O)n2-c2ccccc2F)nc2cc(C(=O)O)ccc21`, the Ki result is “inactive”.

Take `CCn1c(CSc2nc3sc4c(c3c(=O)n2CCOC)CCCC4)nc2cc(C(=O)O)ccc21`: the Ki entry was “inactive”.

As to `CCn1c(CSc2ccc(NC(C)=O)cc2)nc2cc(C(=O)O)ccc21`, the Ki result was “inactive”.

`CCn1c(CSc2nnc(Nc3ccccc3F)s2)nc2cc(C(=O)O)ccc21`: the pKi is 5.55.

On to `CCCCn1c(CSc2nc3ccccc3[nH]2)nc2cc(S(N)(=O)=O)ccc21`, for which the Ki entry is “inactive”.

Regarding `CCn1c(CSc2nnnn2-c2ccccc2)nc2cc(C(=O)O)ccc21`, the Ki result is “inactive”.

`CCn1c(CSc2nccn2C)nc2cc(S(=O)(=O)N3CCCCC3)ccc21`: the pKi was 5.29.

As to `CCCCn1c(CSc2nnc(-c3ccccc3F)n2C)nc2cc(S(N)(=O)=O)ccc21`, the Ki result was “inactive”.

Consider `CCCCn1c(CSc2n[nH]c(=O)n2CCC)nc2cc(S(N)(=O)=O)ccc21`, for which the Ki entry was “inactive”.

Regarding `CCn1c(CSc2nnc(-c3ccoc3C)o2)nc2cc(S(=O)(=O)N(C)C)ccc21`, the Ki result is “inactive”.

Take `OCCn1c(CSc2nc3ccccc3o2)nc2ccc(Cl)cc21`: the Ki result is “inactive”.

`CCn1c(CSc2nncn2C)nc2cc(C(=O)O)ccc21`: the negative logarithm of the Ki (pKi) is 5.30.

Take `Nn1cc(-c2ccccc2)nc1SCc1nc2ccc(Cl)cc2n1CCO`: the Ki entry is “inactive”.

For `CCn1c(CSc2nc3ccccc3s2)nc2cc(C(=O)O)ccc21`, the pKi is 5.34.

Take `C=CCn1c(SCc2nc3ccc(Cl)cc3n2CCO)nnc1-c1ccc(Cl)cc1`: the Ki entry was “inactive”.

In the case of `CCCn1c(SCc2nc3cc(C(=O)O)ccc3n2CC)nc2ccccc2c1=O`, the pKi was 5.87.

As to `CCn1c(CSc2nnnn2C(C)C)nc2cc(C(=O)O)ccc21`, the Ki result is “inactive”.

As to `CCn1c(CSc2n[nH]c(-c3ccccc3)n2)nc2cc(S(=O)(=O)N3CCCCC3)ccc21`, the Ki entry is “inactive”.

For `CCn1c(CSc2nc(C3CC3)n(-c3ccccc3)n2)nc2cc(S(=O)(=O)N(C)C)ccc21`, the pKi is 5.61.

With `COc1ccc2nc(SCc3nc4ccc(Cl)cc4n3CCO)[nH]c2c1`, the Ki entry was “inactive”.

`CCCCn1c(CSc2nnc(-c3ccccc3F)n2N)nc2cc(S(N)(=O)=O)ccc21`: the Ki result was “inactive”.

As for `Nc1nnc(SCc2nc3ccccc3[nH]2)s1`, the Ki result was “inactive”.

Take `CCn1c(CSc2nnc(COc3ccc(OC)cc3)n2-c2ccccc2F)nc2cc(C(=O)O)ccc21`: the pKi is 5.25.

Take `C=CCNc1nnc(SCc2nc3cc(S(=O)(=O)N(C)C)ccc3n2CCC)s1`: the Ki entry is “inactive”.

For the compound `CCn1c(CSc2ncnc3sc(C)c(C)c23)nc2cc(C(=O)O)ccc21`, the Ki entry was “inactive”.

Take `CCn1c(CSc2nnc(N)s2)nc2cc(F)ccc21`: the pKi was 5.64.

Regarding `CCn1c(CSc2n[nH]c(N)n2)nc2cc(F)ccc21`, the Ki result was “inactive”.

As a reminder, the pKi is the Ki on a negative log10 scale, so that one unit is a factor of ten.
